Data as given in ChEMBL document CHEMBL5390225, “Discovery and structural optimization of a new series of N-acyl-2-aminobenzothiazole as inhibitors of Zika virus” (Bioorg Med Chem, 2023).

Columns and labels:
Zika virus [1] = assay: (§1) Inhibition of Zika virus BeH823339 NS2B protease (49 to 95 residues) R96A mutant/NS3 protease (1 to 170 residues) R29G/ C80S/C143S mutant expressed in Escherichia coli BL21 (DE3) cells using Bz-Nle-Lys-Lys-Arg-AMC as a fluorogenic substrate at 100 uM by fluorescence-based analysis relative to control
[2] = Cytotoxicity against African green monkey Vero E6 cells assessed as cell viability at 10 uM measured after 72 hrs by MTT assay relative to control; assay type: toxicity, cell-based, Vero C1008; settings: chlorocebus sabaeus, read-out: Activity
[3] = Cytotoxicity against African green monkey Vero E6 cells assessed as cell viability at 2 uM measured after 72 hrs by MTT assay relative to control; assay type: toxicity, cell-based, Vero C1008; settings: chlorocebus sabaeus, read-out: Activity
Zika virus [4] = assay: as §1, with “uM preincubated with enzyme for 10 mins” for “uM”
Zika virus [5] = assay: Antiviral activity against Zika virus PE243 infected in African green monkey Vero E6 cells assessed as inhibition of viral replication at 2 uM incubated for 72 hrs by immunofluorescence analysis; assay type: functional; settings: PE243, Vero C1008
Zika virus [6] = assay: Antiviral activity against Zika virus PE243 infected in African green monkey Vero E6 cells assessed as inhibition of viral replication at 10 uM incubated for 72 hrs by immunofluorescence analysis; assay type: functional; settings: PE243, Vero C1008
Zika virus [7] = assay: Antiviral activity against Zika virus PE243 infected in African green monkey Vero E6 cells assessed as inhibition of viral replication incubated for 72 hrs by immunofluorescence analysis; assay type: functional, organism-based; settings: PE243, Vero C1008, 72 h
Zika virus [8] = assay: Antiviral activity against Zika virus infected in golden hamster BHK21-RepZIKV_IRES-Neo cells assessed as inhibition of viral replication by measuring reduction in renilla luciferase expression at 10 uM measured after 72 hrs by luciferase reporter gene assay relative to control; assay type: functional, Mesocricetus auratus; settings: BHK-21
BHK-21 = assay: Cytotoxicity against golden hamster BHK21-RepZIKV_IRES-Neo cells assessed as reduction in cell viability measured after 72 hrs by MTT assay; assay type: toxicity, cell-based, Mesocricetus auratus; settings: bhk-21, 72 h
[9] = Cytotoxicity against African green monkey Vero E6 cells assessed as reduction in cell viability measured after 72 hrs by MTT assay; assay type: toxicity, cell-based, Vero C1008; settings: chlorocebus sabaeus
[10] = Selectivity index, ratio of CC50 for cytotoxicity against African green monkey Vero E6 cells to EC50 for antiviral activity against Zika virus PE243 infected in African green monkey Vero E6 cells; assay type: toxicity, cell-based, Vero C1008; settings: read-out: Ratio CC50/EC50
[11] = as §1, with “preincubated with enzyme for 10 mins” for “at 100 uM”, “analysis” for “analysis relative to control”
[12] = biological target: Cruzipain (Trypanosoma cruzi) (UniProt P25779); assay: Inhibition of recombinant Trypanosoma cruzi Cruzain using Z-Phe-Arg-AMC as fluorogenic substrate at 50 uM preincubated with enzyme for 10 mins by fluorescence-based analysis relative to control
Cruzipain (Trypanosoma cruzi), sequence (P25779 123-467 limits assumed): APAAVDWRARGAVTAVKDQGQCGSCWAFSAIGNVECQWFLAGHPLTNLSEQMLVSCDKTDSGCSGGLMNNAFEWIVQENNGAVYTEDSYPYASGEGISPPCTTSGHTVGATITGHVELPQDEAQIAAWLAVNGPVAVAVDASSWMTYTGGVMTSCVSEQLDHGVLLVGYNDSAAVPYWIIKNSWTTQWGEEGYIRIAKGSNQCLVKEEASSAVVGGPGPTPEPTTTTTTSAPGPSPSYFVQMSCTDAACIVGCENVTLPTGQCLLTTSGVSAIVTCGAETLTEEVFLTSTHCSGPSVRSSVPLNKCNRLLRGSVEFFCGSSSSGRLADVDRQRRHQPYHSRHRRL

Zika virus [13] = assay: as §1, with “uM preincubated with enzyme for 10 mins in presence of 0.001% TritonX-100” for “uM”, “analysis” for “analysis relative to control”
Zika virus [14] = assay: as §1, with “50” for “100”, “uM preincubated with 2 nM enzyme for 10 mins” for “uM”
Zika virus [15] = assay: as §1, with “50” for “100”, “uM preincubated with 0.2 nM enzyme for 10 mins” for “uM”
Zika virus [16] = assay: as §1, with “50” for “100”, “uM preincubated with enzyme for 10 mins in presence of BSA” for “uM”
[17] = biological target: Cruzipain (Trypanosoma cruzi) (UniProt P25779); assay: Inhibition of recombinant Trypanosoma cruzi Cruzain using Z-Phe-Arg-AMC as fluorogenic substrate at 25 uM preincubated with enzyme for 10 mins by fluorescence-based analysis relative to control
Zika virus [18] = assay: as §1, with “25” for “100”, “uM preincubated with enzyme for 10 mins in presence of BSA” for “uM”
Zika virus [19] = assay: as §1, with “25” for “100”, “uM preincubated with 0.2 nM enzyme for 10 mins” for “uM”
Zika virus [20] = assay: as §1, with “25” for “100”, “uM preincubated with 2 nM enzyme for 10 mins” for “uM”
[21] = biological target: Cruzipain (Trypanosoma cruzi) (UniProt P25779); assay: Inhibition of recombinant Trypanosoma cruzi Cruzain using Z-Phe-Arg-AMC as fluorogenic substrate at 12.5 uM preincubated with enzyme for 10 mins by fluorescence-based analysis relative to control
Zika virus [22] = assay: as §1, with “12.5” for “100”, “uM preincubated with 0.2 nM enzyme for 10 mins” for “uM”
Zika virus [23] = assay: as §1, with “12.5” for “100”, “uM preincubated with 2 nM enzyme for 10 mins” for “uM”
Zika virus [24] = assay: as §1, with “10” for “100”, “uM preincubated with enzyme for 10 mins in presence of BSA” for “uM”
Zika virus [25] = assay: as §1, with “Non-competitive inhibition” for “Inhibition”, “using 5.5 to 88 uM of” for “using”, “compound concentration close to IC50 preincubated with enzyme for 10 mins” for “100 uM”

Row | Structure (SMILES) | inhibition (Zika virus [1]) [%] | viability at 72 h, 10 µM [2] [%] | viability at 72 h, 2 µM [3] [%] | inhibition (Zika virus [4]) [%] | inhibition at 2 µM (Zika virus [5]) [%] | inhibition at 10 µM (Zika virus [6]) [%] | EC50 (Zika virus [7]) [µM] | inhibition at 10 µM (Zika virus [8]) [%] | Activity (BHK-21) | CC50 at 72 h [9] [µM] | selectivity ratio [10] | other results
1 | Cc1ccc(S(=O)(=O)Nc2ccc(C(=O)Nc3nc4ccccc4s3)cc2)cc1 | 20 | 19.5 | 70.6 | 28 | 5.5 | 83 | – | – | – | – | – | –
2 | COc1ccc(S(=O)(=O)Nc2cccc(C(=O)Nc3nc4ccccc4s3)c2)cc1 | 2 | 17.7 | 79.3 | 11 | 72.9 | 87.5 | 5.1 | 40.3 | Non-Toxic | 128 | 25.1 | –
3 | COc1ccc(S(=O)(=O)NCC(=O)Nc2nc3ccccc3s2)cc1 | – | 82.7 | 104 | 62 | 0 | 0 | – | – | – | – | – | –
4 | COc1ccc(S(=O)(=O)Nc2ccccc2C(=O)Nc2nc3ccccc3s2)cc1 | 92 | 104 | 98.5 | 100 | 5.4 | 1 | – | – | – | – | – | IC50 [11]: 24 µM; inhibition [12]: 96%; inhibition (Zika virus [13]): 53%; inhibition (Zika virus [14]): 25%; inhibition (Zika virus [15]): 39%; inhibition (Zika virus [16]): 20%
5 | Cc1ccc(S(=O)(=O)NCC(=O)Nc2nc3ccccc3s2)cc1 | – | 74.4 | 101 | 21 | 6.8 | 27.9 | – | – | – | – | – | –
6 | O=C(Nc1nc2ccccc2s1)c1ccc(NS(=O)(=O)c2ccc(Br)cc2)cc1 | 7 | 22.7 | 97 | 4 | 69.1 | 75.7 | 5 | 60.4 | Non-Toxic | 45.8 | 9.2 | –
7 | COc1cc(Cl)ccc1S(=O)(=O)Nc1ccc(C(=O)Nc2nc3ccccc3s2)cc1 | 3 | 17.5 | 44 | 5 | 64.5 | 100 | 10.7 | 3.4 | Non-Toxic | 23.9 | 2.2 | –
8 | COc1ccc(S(=O)(=O)Nc2ccc(C(=O)Nc3nc4ccccc4[nH]3)cc2)cc1 | – | 25.9 | 93.1 | 43 | 0 | 0 | – | – | – | – | – | –
9 | CC(=O)Nc1ccc(S(=O)(=O)Nc2ccc(C(=O)Nc3nc4ccccc4s3)cc2)cc1 | 44 | 72.3 | 98.1 | 57 | 0.9 | 25.8 | – | – | – | – | – | –
10 | O=C(Nc1nc2ccccc2s1)c1ccc(NS(=O)(=O)c2ccc([N+](=O)[O-])cc2)cc1 | 30 | 99.7 | 101 | 39 | 0 | 72.1 | 7.5 | 23.4 | Non-Toxic | 30.2 | 4 | –
11 | O=C(Nc1nc2ccccc2s1)c1ccc(NS(=O)(=O)c2ccc(F)cc2)cc1 | 22 | 40.4 | 93.6 | 27 | 15.3 | 54.7 | – | – | – | – | – | –
12 | COc1ccc(S(=O)(=O)Nc2ccccc2C(=O)Nc2nccs2)cc1 | 62 | 34.8 | 36.2 | 100 | 68.6 | 100 | 5 | 75.5 | Non-Toxic | 38.7 | 7.7 | inhibition [17]: 20%; IC50 [11]: 26 µM; inhibition (Zika virus [18]): 5%; inhibition (Zika virus [19]): 43%; inhibition (Zika virus [13]): 24%; inhibition (Zika virus [20]): 20%
13 | COc1ccc(S(=O)(=O)Nc2ccc(C(=O)Nc3nccs3)cc2)cc1 | – | 98.9 | 95.7 | 7 | 4.9 | 16.1 | – | – | – | – | – | –
14 | CC(C)(C)OC(=O)NCC(=O)Nc1nc2ccccc2s1 | – | 60.1 | 104 | – | 18.9 | 56.5 | 17 | – | – | 79 | 4.7 | –
15 | O=C(Nc1nc2ccccc2s1)c1ccc(NS(=O)(=O)c2ccccc2)cc1 | 20 | 17.7 | 85.9 | 28 | 44.7 | 82.6 | – | – | – | – | – | –
16 | COc1ccc(OC)c(S(=O)(=O)NCC(=O)Nc2nc3ccccc3s2)c1 | 51 | 102 | 112 | 93 | 8.3 | 7.9 | – | – | – | – | – | inhibition [17]: 3%; IC50 [11]: 24 µM; inhibition (Zika virus [18]): 11%; inhibition (Zika virus [19]): 28%; inhibition (Zika virus [13]): 12%; inhibition (Zika virus [20]): 12%
17 | COc1ccc(S(=O)(=O)Nc2ccccc2C(=O)Nc2nc3ccccc3[nH]2)cc1 | 62 | 19.9 | 33.5 | 100 | 97.6 | 98.8 | 33.9 | 46.4 | Non-Toxic | 56.5 | 1.7 | inhibition [21]: 58%; IC50 [11]: 8 µM; inhibition (Zika virus [22]): 62%; inhibition (Zika virus [23]): 16%; inhibition (Zika virus [13]): 42%; inhibition (Zika virus [24]): 8%
18 | O=C(Nc1nc2ccccc2s1)c1ccc(NC(=S)Nc2ccccc2)cc1 | 46 | 29 | 96 | 99 | 9.4 | 73.6 | – | – | – | – | – | inhibition [21]: 72%; IC50 [11]: 8 µM; inhibition (Zika virus [22]): 15%; inhibition (Zika virus [23]): 9%; inhibition (Zika virus [13]): 46%; inhibition (Zika virus [25]): 25%; inhibition (Zika virus [24]): 12%
19 | O=C(CNS(=O)(=O)c1ccc(F)cc1)Nc1nc2ccccc2s1 | – | 26.5 | 95.6 | 43 | 15.9 | 65.1 | – | – | – | – | – | –
